# The source made the active and inactive calls. No cut-off for these calls is given here.
# Columns and labels:
# [1] = Ratio of ED50 for epothilone B to ED50 for compound for induction of microtubule assembly by photoaffinity labeling study
# [2] = Induction of microtubule assembly by photoaffinity labeling study in presence of epothilone B
# [3] = Ratio of ED50 for epothilone B to ED50 for compound for human NCI/ADR cells; assay type: functional
# [4] = test system: MCF7; experiment: Ratio of ED50 for epothilone B to ED50 for compound for human MCF7 cells; assay type: functional
# [5] = Induction of microtubule assembly by photoaffinity labeling study
# [6] = Cytotoxicity against human NCI/ADR cells by phototoxicity labeling study; assay type: functional; details: NCI/ADR-RES, light or radiation study, read-out: ED50 (the source's name)
# [7] = test system: MCF7; experiment: Cytotoxicity against human MCF7 cells by […] labeling study; assay type: functional; details: MCF7, light or radiation study, read-out: ED50 (the source's name)
SMILES,Ratio ED50 [1],Activity [2],Ratio ED50 [3],Ratio ED50 [4],ED50 [5] [nM],EC50 [6] [nM],EC50 [7] [nM]
C/C(=C\c1csc(C)n1)[C@@H]1C/C=C\CCC[C@H](C)[C@H](O)[C@@H](C)C(=O)[C@](C)(CCOC(=O)c2cccc(N=[N+]=[N-])c2)[C@@H](O)CC(=O)O1,5.1,inactive,833,632,5100,1000,1200
C/C(=C\c1csc(C)n1)[C@@H]1C[C@@H]2O[C@]2(C)CCC[C@H](C)[C@H](O)[C@@H](C)C(=O)C(C)(C)[C@@H](O)CC(=O)O1 [PATUPILONE],,,,,1000,1.2,1.5
